Reference: ChEMBL document CHEMBL4483862, “Open-source discovery of chemical leads for next-generation chemoprotective antimalarials” (2018)

System: Plasmodium berghei
Test: Luciferase/luciferin-expressing antifolate-resistant parasites were used to infect a culture of HepG2 cells that were pre-incubated with compounds. Infected hepatocytes emit light due to the luciferase reaction. Assay results are presented as the percent inhibition of light emission compared to control. […]
Assay type: functional
Conditions: sporozoite; for IC90: read-out: LUCIFERASE INFECTION ASSAY - IC90
[1] = PBLUC_HILL_SLOPE 15.5, PBLUC_R_SQUARED 0.469, read-out: LUCIFERASE INFECTION ASSAY - IC50

Structure (SMILES)	IC90	further results
COc1cc(NC(=O)Nc2nc(C(N)Cc3ccc(C(F)(F)F)cc3)cs2)cc(OC)c1OC (configuration not stated)	> 6.65 µM	IC50 (PBLUC_HILL_SLOPE 15.7, PBLUC_R_SQUARED 0.39, read-out: LUCIFERASE INFECTION ASSAY - IC50): 6.04 µM
CC(C)c1ccc(CN2CCC2(C)C(=O)Nc2cnc3ccccc3c2)cc1 (configuration not stated)	3.79 µM	IC50 (PBLUC_HILL_SLOPE 15.4, PBLUC_R_SQUARED 0.671, read-out: LUCIFERASE INFECTION ASSAY - IC50): 3.29 µM
Cn1nc(C(F)(F)F)cc1-c1ccc(NC(=O)Nc2cccc(C(F)(F)F)c2)s1	> 7.6 µM	IC50 (PBLUC_HILL_SLOPE 15.6, PBLUC_R_SQUARED 0.0592, read-out: LUCIFERASE INFECTION ASSAY - IC50): 7.44 µM
CCCn1c(NC(=O)c2ccc3ccccc3n2)nc2ccccc21	3.56 µM	IC50 (PBLUC_HILL_SLOPE 15.7, PBLUC_R_SQUARED 0.527, read-out: LUCIFERASE INFECTION ASSAY - IC50): 3.1 µM
OC(COc1cccc(C(F)(F)F)c1)CN1CCN(c2nc(-c3ccccc3)ns2)CC1 (configuration not stated)	> 7.1 µM	IC50 (PBLUC_HILL_SLOPE 15.4, PBLUC_R_SQUARED 0.391, read-out: LUCIFERASE INFECTION ASSAY - IC50): 6.73 µM
CCC(NCC(O)COc1ccccc1C(C)C)c1ccc(Br)cc1 (configuration not stated)	> 10 µM	IC50 (PBLUC_HILL_SLOPE 15.5, PBLUC_R_SQUARED 0.67, read-out: LUCIFERASE INFECTION ASSAY - IC50): 9.4 µM
O=C(/C=C/c1ccccc1[N+](=O)[O-])OCc1nc2ccccc2s1	> 10 µM	IC50 (PBLUC_HILL_SLOPE 15.4, PBLUC_R_SQUARED 0.138, read-out: LUCIFERASE INFECTION ASSAY - IC50): > 10 µM
CN(C)c1cccc(-c2cnc3cnc(-c4cccc(C(N)=O)c4)cn23)c1	> 9.23 µM	IC50 (PBLUC_HILL_SLOPE 15.5, PBLUC_R_SQUARED 0.533, read-out: LUCIFERASE INFECTION ASSAY - IC50): 8.74 µM
NC(c1csc(NC(=O)Nc2ccccc2-c2ccccc2)n1)C1CCCCC1 (configuration not stated)	> 8.12 µM	IC50 (PBLUC_HILL_SLOPE 15.5, PBLUC_R_SQUARED 0.0255, read-out: LUCIFERASE INFECTION ASSAY - IC50): 7.57 µM
O=C1CN(CC(=O)N2N=C(c3ccc4ccccc4c3)CC2c2ccccc2)c2ccccc2N1 (configuration not stated)	> 10 µM	IC50 (PBLUC_HILL_SLOPE 15.5, PBLUC_R_SQUARED 0.336, read-out: LUCIFERASE INFECTION ASSAY - IC50): 9.53 µM
CC(C(=O)NCc1ccco1)c1ccc2c(c1)[nH]c1ccc(Cl)cc12 (configuration not stated)	> 9.35 µM	IC50 (PBLUC_HILL_SLOPE 15.7, PBLUC_R_SQUARED 0.128, read-out: LUCIFERASE INFECTION ASSAY - IC50): > 9.35 µM
O=C(Cc1ccc(-c2ccccc2)cc1)NCc1cn2ccccc2n1	> 10 µM	IC50 (PBLUC_HILL_SLOPE 15.5, PBLUC_R_SQUARED 0.301, read-out: LUCIFERASE INFECTION ASSAY - IC50): 8.96 µM
COc1ccc(-c2cnc3ccc(-c4cccc(C(F)(F)F)c4)nn23)cc1OC	9.93 µM	IC50 (PBLUC_HILL_SLOPE 15.4, PBLUC_R_SQUARED 0.158, read-out: LUCIFERASE INFECTION ASSAY - IC50): 8.61 µM
CN(C)CCNC(=O)c1cccc(-c2cc(-c3ccc(-c4ccccc4)cc3F)cnc2N)c1	> 7.26 µM	IC50 (PBLUC_HILL_SLOPE 15.7, PBLUC_R_SQUARED 0.255, read-out: LUCIFERASE INFECTION ASSAY - IC50): > 7.26 µM
Cc1nc2c(C(N)=O)ncn2c(C)c1CCC(=O)Nc1ccc2oc3ccccc3c2c1	9.76 µM	IC50 (PBLUC_HILL_SLOPE 15.8, PBLUC_R_SQUARED 0.091, read-out: LUCIFERASE INFECTION ASSAY - IC50): 9.25 µM
COc1ccc(C(=O)Nc2ccccc2-c2nc3ccccc3[nH]2)cc1S(=O)(=O)N1CCCC1	> 10 µM	IC50 (PBLUC_HILL_SLOPE 15.4, PBLUC_R_SQUARED 0.501, read-out: LUCIFERASE INFECTION ASSAY - IC50): 8.92 µM
c1ccc(-c2cc3c(N4CCC(c5ncc[nH]5)CC4)ncnc3s2)cc1	3.94 µM	IC50 (PBLUC_HILL_SLOPE 15.6, PBLUC_R_SQUARED 0.358, read-out: LUCIFERASE INFECTION ASSAY - IC50): 3.43 µM
Cc1ccc(Cn2nc(C)c(C(=O)Nc3nc4c(s3)CCCC4)c2Cl)cc1	> 10 µM	IC50 (PBLUC_HILL_SLOPE 15.7, PBLUC_R_SQUARED 0.159, read-out: LUCIFERASE INFECTION ASSAY - IC50): 9.13 µM
COc1cc(-c2cnc3cnc(-c4cccnc4)cn23)ccc1O	3.99 µM	IC50 (PBLUC_HILL_SLOPE 15.7, PBLUC_R_SQUARED 0.533, read-out: LUCIFERASE INFECTION ASSAY - IC50): 3.47 µM
COc1ccccc1-n1c(C)cc(/C=C(\C#N)c2nnc3n2CCCCC3)c1C	> 10 µM	IC50 (PBLUC_HILL_SLOPE 15.5, PBLUC_R_SQUARED 0.0701, read-out: LUCIFERASE INFECTION ASSAY - IC50): 9.71 µM
Cc1c(-c2ccccc2)oc2c(C(=O)Nc3ccc(N4CCOCC4)c4ccncc34)cccc2c1=O	> 10 µM	IC50 (PBLUC_HILL_SLOPE 15.7, PBLUC_R_SQUARED 0.205, read-out: LUCIFERASE INFECTION ASSAY - IC50): 9.81 µM

Structure (SMILES)	IC90	further results
CC(C)c1ccc(-c2csc(NC(=O)c3cccc(NC(=O)C4CCCO4)c3)n2)cc1 (configuration not stated)	> 10 µM	IC50 (PBLUC_HILL_SLOPE 15.4, PBLUC_R_SQUARED 0.296, read-out: LUCIFERASE INFECTION ASSAY - IC50): 9.87 µM
COc1cc(-c2ccc3ncc(-c4cccc(OC(F)(F)F)c4)n3n2)cc(OC)c1OC	3.72 µM	IC50 (PBLUC_HILL_SLOPE 15.5, PBLUC_R_SQUARED 0.302, read-out: LUCIFERASE INFECTION ASSAY - IC50): 3.23 µM
Cc1ccc(C(=O)OCCOc2ccccc2)cc1NC(=O)c1ccco1	1.22 µM	IC50 (PBLUC_HILL_SLOPE 15.6, PBLUC_R_SQUARED 0.272, read-out: LUCIFERASE INFECTION ASSAY - IC50): 1.06 µM
CCC(C(=O)Nc1nc2ccccn2c1C(=O)NC1CCCCC1)c1ccccc1 (configuration not stated)	> 8.16 µM	IC50 (PBLUC_HILL_SLOPE 15.5, PBLUC_R_SQUARED 0.112, read-out: LUCIFERASE INFECTION ASSAY - IC50): 7.66 µM
CCN(CC(=O)Nc1nnc(-c2ccccc2)o1)Cc1ccc(Br)s1	3.99 µM	IC50 [1]: 3.46 µM
O=C(c1cnc(Nc2cccc(C(F)(F)F)c2)[nH]1)c1ccccc1F	> 9.45 µM	IC50 (PBLUC_HILL_SLOPE 15.7, PBLUC_R_SQUARED 0.709, read-out: LUCIFERASE INFECTION ASSAY - IC50): 9.07 µM
O=C(NC1CCN(C(=O)c2ccoc2)CC1)c1cccc2c3c([nH]c12)CCCCC3	> 10 µM	IC50 (PBLUC_HILL_SLOPE 15.4, PBLUC_R_SQUARED 0.491, read-out: LUCIFERASE INFECTION ASSAY - IC50): 9.35 µM
FC(F)Sc1ccc2nc3ccccc3c(N3CCOCC3)c2c1	0.134 µM	IC50 (PBLUC_HILL_SLOPE 15.6, PBLUC_R_SQUARED 0.79, read-out: LUCIFERASE INFECTION ASSAY - IC50): 0.117 µM
OCCNc1nc(-c2cccnc2)nc2scc(-c3ccccc3)c12	> 10 µM	IC50 (PBLUC_HILL_SLOPE 15.6, PBLUC_R_SQUARED 0.267, read-out: LUCIFERASE INFECTION ASSAY - IC50): 9.57 µM
COCOc1ccc(-c2cc(-c3ccc(C(N)=O)cc3)cnc2N)cc1	3.43 µM	IC50 (PBLUC_HILL_SLOPE 15.5, PBLUC_R_SQUARED 0.616, read-out: LUCIFERASE INFECTION ASSAY - IC50): 2.98 µM
CC(C)c1ccc(C(=O)CSc2nc(N)cc(N)n2)c(C(C)C)c1	> 10 µM	IC50 (PBLUC_HILL_SLOPE 15.6, PBLUC_R_SQUARED 0.415, read-out: LUCIFERASE INFECTION ASSAY - IC50): 9.92 µM
O=c1cc(C(F)(F)F)[nH]c2cc(C(F)(F)F)ccc12	4.25 µM	IC50 (PBLUC_HILL_SLOPE 15.4, PBLUC_R_SQUARED 0.673, read-out: LUCIFERASE INFECTION ASSAY - IC50): 3.68 µM
O=C(Nc1nc2ccccc2[nH]1)c1cccc(S(=O)(=O)N(Cc2ccccc2)c2ccccc2Cl)c1	3.66 µM	IC50 (PBLUC_HILL_SLOPE 15.7, PBLUC_R_SQUARED 0.534, read-out: LUCIFERASE INFECTION ASSAY - IC50): 3.18 µM
N#Cc1c(SCC(=O)c2ccc(F)c(F)c2)nc2c(c1-c1cccs1)CCCC2	> 7.74 µM	IC50 (PBLUC_HILL_SLOPE 15.7, PBLUC_R_SQUARED 0.483, read-out: LUCIFERASE INFECTION ASSAY - IC50): 7.6 µM
N#Cc1ccc(C(=O)Nc2nc(-c3c[nH]c4ccccc34)cs2)cc1	> 10 µM	IC50 (PBLUC_HILL_SLOPE 15.6, PBLUC_R_SQUARED 0.4, read-out: LUCIFERASE INFECTION ASSAY - IC50): 9.53 µM
O=C(CNC(=O)c1ccc(Oc2ccccc2)cc1)Nc1nccs1	> 10 µM	IC50 [1]: 9.34 µM
COc1ccc(CCNC2CCc3c(c(C(=O)N(C)C)nn3CC3CCCCC3)C2)cc1 (configuration not stated)	> 7.52 µM	IC50 (PBLUC_HILL_SLOPE 15.6, PBLUC_R_SQUARED 0.553, read-out: LUCIFERASE INFECTION ASSAY - IC50): 7.33 µM
CCCNc1nc(-c2ccc(OC)cc2)c(-c2ccc(OC)cc2)s1	> 10 µM	IC50 (PBLUC_HILL_SLOPE 15.7, PBLUC_R_SQUARED 0.0413, read-out: LUCIFERASE INFECTION ASSAY - IC50): 9.99 µM
Cc1ccc(CCCNC(=O)c2cc(C3CC3)n[nH]2)c(C)c1	4.2 µM	IC50 (PBLUC_HILL_SLOPE 15.6, PBLUC_R_SQUARED 0.22, read-out: LUCIFERASE INFECTION ASSAY - IC50): 3.65 µM
Nc1ncc(-c2ccc(C(=O)NC3CC3)cc2)cc1-c1ccc(F)c(Cl)c1	8.39 µM	IC50 (PBLUC_HILL_SLOPE 15.4, PBLUC_R_SQUARED 0.346, read-out: LUCIFERASE INFECTION ASSAY - IC50): 7.27 µM
